# Laboratory results taken from ChEMBL document CHEMBL1201862, “PubChem BioAssay data set” (2004).
#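 These data come from cells grown in 96-well plates and exposed to compound for 48 hours at five concentrations. GI50: concentration for 50% inhibition of growth.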 Calls of active or inactive are those of the source. Rule as the data show it: active = GI50 up to about 1.1 µM and inactive = higher.
# Tests used:
# Assay in all cases: DTP human tumour cell line panel, 48 h
# HL-60 = system: HL-60
# Hs-578T = system: Hs-578T
# CCRF-CEM = system: CCRF-CEM
# DU-145 = system: DU-145
# 786-0 = system: 786-0
# SK-MEL-28 = system: SK-MEL-28
# UACC-62 = system: UACC-62
# MOLT-4 = system: MOLT-4
# PC-3 = system: PC-3
# U-251 = system: U-251
# M14 = system: M14
# HCC 2998 = system: HCC 2998
# OVCAR-3 = system: OVCAR-3
# MDA-N = system: MDA-N
# ACHN = system: ACHN
# SK-MEL-2 = system: SK-MEL-2
# Malme-3M = system: Malme-3M
# HT-29 = system: HT-29
# KM12 = system: KM12
# MDA-MB-231 = system: MDA-MB-231
Structure (SMILES),GI50 (HL-60),GI50 (Hs-578T),GI50 (CCRF-CEM),GI50 (DU-145),GI50 (786-0),GI50 (SK-MEL-28),GI50 (UACC-62),GI50 (MOLT-4),GI50 (PC-3),GI50 (U-251),GI50 (M14),GI50 (HCC 2998),GI50 (OVCAR-3),GI50 (MDA-N),GI50 (ACHN),GI50 (SK-MEL-2),GI50 (Malme-3M),GI50 (HT-29),GI50 (KM12),GI50 (MDA-MB-231)
C[C@H]1COC2=C1C(=O)C(=O)c1c2ccc2c1CCCC2(C)C [CRYPTOTANSHINONE],2.39 µM (inactive),2.29 µM (inactive),4.31 µM (inactive),1.35 µM (inactive),3.42 µM (inactive),3.19 µM (inactive),2.03 µM (inactive),4.24 µM (inactive),4.93 µM (inactive),2 µM (inactive),1.03 µM (active),2.48 µM (inactive),0.326 µM (active),1.61 µM (inactive),3.6 µM (inactive),4.25 µM (inactive),0.305 µM (active),2.18 µM (inactive),2.19 µM (inactive),12 µM (inactive)
CCN(CC)c1ccc2nc3ccc(/N=N/c4c(O)ccc5ccccc45)cc3[n+](-c3ccccc3)c2c1,23.9 µM (inactive),> 100 µM (inactive),> 100 µM (inactive),> 100 µM (inactive),> 100 µM (inactive),> 100 µM (inactive),> 100 µM (inactive),> 100 µM (inactive),> 100 µM (inactive),> 100 µM (inactive),> 100 µM (inactive),,> 100 µM (inactive),> 100 µM (inactive),> 100 µM (inactive),> 100 µM (inactive),> 100 µM (inactive),> 100 µM (inactive),> 100 µM (inactive),> 100 µM (inactive)
Cc1ccc2c(ccc3c[n+]4ccccc4c(C)c32)c1.[O-][Cl+3]([O-])([O-])[O-],11.7 µM (inactive),3.05 µM (inactive),6.64 µM (inactive),1.13 µM (inactive),2.51 µM (inactive),3.17 µM (inactive),,7.91 µM (inactive),0.904 µM (active),0.581 µM (active),5.46 µM (inactive),2.77 µM (inactive),1.12 µM (active),> 100 µM (inactive),6.7 µM (inactive),1.39 µM (inactive),1.32 µM (inactive),6.15 µM (inactive),0.39 µM (active),6.61 µM (inactive)
Cc1cc2c(cc1Cl)Sc1n[nH]c(=O)n1S2(=O)=O,> 100 µM (inactive),> 100 µM (inactive),> 100 µM (inactive),> 100 µM (inactive),> 100 µM (inactive),> 100 µM (inactive),> 100 µM (inactive),> 100 µM (inactive),> 100 µM (inactive),> 100 µM (inactive),> 100 µM (inactive),> 100 µM (inactive),95.5 µM (inactive),> 100 µM (inactive),> 100 µM (inactive),,40.6 µM (inactive),> 100 µM (inactive),> 100 µM (inactive),> 100 µM (inactive)
COc1ccc(NC(=S)Nc2c(C)n(C)n(-c3ccccc3)c2=O)cc1,> 100 µM (inactive),> 100 µM (inactive),> 100 µM (inactive),> 100 µM (inactive),> 100 µM (inactive),> 100 µM (inactive),> 100 µM (inactive),> 100 µM (inactive),> 100 µM (inactive),> 100 µM (inactive),> 100 µM (inactive),> 100 µM (inactive),> 100 µM (inactive),> 100 µM (inactive),> 100 µM (inactive),,> 100 µM (inactive),> 100 µM (inactive),> 100 µM (inactive),> 100 µM (inactive)
Cc1cn(C2CC(n3cc(Cn4ccc(=O)[nH]c4=O)nn3)C(CO)O2)c(=O)[nH]c1=O (stereo not given),95.1 µM (inactive),> 100 µM (inactive),> 100 µM (inactive),> 100 µM (inactive),,> 100 µM (inactive),> 100 µM (inactive),> 100 µM (inactive),> 100 µM (inactive),> 100 µM (inactive),> 100 µM (inactive),> 100 µM (inactive),> 100 µM (inactive),> 100 µM (inactive),> 100 µM (inactive),> 100 µM (inactive),,,> 100 µM (inactive),> 100 µM (inactive)
CC(C)(C)CC(N)=O,> 100 µM (inactive),> 100 µM (inactive),> 100 µM (inactive),> 100 µM (inactive),> 100 µM (inactive),> 100 µM (inactive),> 100 µM (inactive),> 10 µM (inactive),> 100 µM (inactive),> 100 µM (inactive),> 100 µM (inactive),> 100 µM (inactive),> 100 µM (inactive),> 100 µM (inactive),> 100 µM (inactive),> 100 µM (inactive),,> 100 µM (inactive),> 100 µM (inactive),> 100 µM (inactive)
Cc1ccc(SCC(CSCCO)OCn2cnc3c2N=C(N)NC32OCCO2)cc1 (stereo not given),> 100 µM (inactive),> 100 µM (inactive),> 100 µM (inactive),> 100 µM (inactive),> 100 µM (inactive),> 100 µM (inactive),,> 100 µM (inactive),> 100 µM (inactive),> 100 µM (inactive),> 100 µM (inactive),> 100 µM (inactive),> 100 µM (inactive),> 100 µM (inactive),> 100 µM (inactive),> 100 µM (inactive),> 100 µM (inactive),> 100 µM (inactive),,> 100 µM (inactive)
CN(CCCn1ccnc1[N+](=O)[O-])CCCn1ccnc1[N+](=O)[O-],> 100 µM (inactive),> 100 µM (inactive),8.41 µM (inactive),> 100 µM (inactive),> 100 µM (inactive),> 100 µM (inactive),> 100 µM (inactive),0.0861 µM (active),> 100 µM (inactive),> 100 µM (inactive),> 100 µM (inactive),,> 100 µM (inactive),> 100 µM (inactive),> 100 µM (inactive),> 100 µM (inactive),> 100 µM (inactive),> 100 µM (inactive),> 100 µM (inactive),> 100 µM (inactive)
S=c1c2cc(I)ccc2nc(S)n1Cc1ccccc1,2.33 µM (inactive),7.16 µM (inactive),1.84 µM (inactive),2.71 µM (inactive),5.96 µM (inactive),3.79 µM (inactive),,3.18 µM (inactive),3.32 µM (inactive),3.46 µM (inactive),3.9 µM (inactive),,2.9 µM (inactive),3.83 µM (inactive),3.06 µM (inactive),3.14 µM (inactive),4.01 µM (inactive),18.4 µM (inactive),3.42 µM (inactive),6.37 µM (inactive)
C=C1N(S(=O)(=O)c2ccc(C)cc2)C(=O)OCC12CCCC2,40.3 µM (inactive),32.5 µM (inactive),65.5 µM (inactive),> 100 µM (inactive),> 100 µM (inactive),> 100 µM (inactive),34.6 µM (inactive),77.4 µM (inactive),34.6 µM (inactive),76 µM (inactive),> 100 µM (inactive),> 100 µM (inactive),52.4 µM (inactive),> 100 µM (inactive),> 100 µM (inactive),,> 100 µM (inactive),54.7 µM (inactive),> 100 µM (inactive),> 100 µM (inactive)
COc1ccccc1-n1nnc2c(N)nc(N)nc21,> 100 µM (inactive),> 100 µM (inactive),> 100 µM (inactive),> 100 µM (inactive),> 100 µM (inactive),> 100 µM (inactive),> 100 µM (inactive),> 100 µM (inactive),> 100 µM (inactive),> 100 µM (inactive),> 100 µM (inactive),,> 100 µM (inactive),> 100 µM (inactive),> 100 µM (inactive),> 100 µM (inactive),> 100 µM (inactive),> 100 µM (inactive),> 100 µM (inactive),> 100 µM (inactive)
COc1ccc(-n2c(C)nc3ccc(/N=C/c4ccccc4)cc3c2=O)cc1,> 100 µM (inactive),> 100 µM (inactive),,> 100 µM (inactive),> 100 µM (inactive),> 100 µM (inactive),> 100 µM (inactive),> 100 µM (inactive),> 100 µM (inactive),> 100 µM (inactive),,> 100 µM (inactive),> 100 µM (inactive),> 100 µM (inactive),> 100 µM (inactive),,> 100 µM (inactive),> 100 µM (inactive),> 100 µM (inactive),> 100 µM (inactive)
COc1ccc(C2=C(N)c3cc(OC)ccc3C2=O)cc1,> 100 µM (inactive),4.25 µM (inactive),,> 100 µM (inactive),> 100 µM (inactive),> 100 µM (inactive),> 100 µM (inactive),> 100 µM (inactive),> 100 µM (inactive),> 100 µM (inactive),> 100 µM (inactive),> 100 µM (inactive),> 100 µM (inactive),> 100 µM (inactive),49.9 µM (inactive),> 100 µM (inactive),> 100 µM (inactive),> 100 µM (inactive),29.2 µM (inactive),> 100 µM (inactive)
COC(=O)C1=C(O)C(C(=O)OC)[C@]2(O)[C@H](C(=O)OC)[C@H]1C[C@@H](c1ccc(C(F)(F)F)cc1)[C@H]2C(=O)OC (stereo not given in full),5.48 µM (inactive),4.43 µM (inactive),,4.24 µM (inactive),3.44 µM (inactive),4.89 µM (inactive),3.87 µM (inactive),2.07 µM (inactive),3.48 µM (inactive),2.41 µM (inactive),3.81 µM (inactive),3.47 µM (inactive),3.78 µM (inactive),3.27 µM (inactive),3.46 µM (inactive),2.79 µM (inactive),3.78 µM (inactive),4.68 µM (inactive),5.37 µM (inactive),4.22 µM (inactive)
